In PMC4476818, “Characterization of uronate dehydrogenases catalysing the initial step in an oxidative pathway” (Microbial Biotechnology, 2015):
Where two headings read alike, the source gives them in different places.

What was measured:
UdhFp = system: T1, UdhFp; assay: NADH formation at […] nm; assay type: biochemical, Fulvimarina pelagi
T1 construct: gene udh; N-terminal His-tag, tag kept; synthetic codon-optimized gene, E. coli BL21(DE3); start MLEKLLI (from primer)

UdhOg = system: T2, UdhOg; assay: NADH formation at […] nm; assay type: biochemical, Oceanicola granulosus
T2 construct: gene udh; N-terminal His-tag, tag kept; wild-type gene from genomic DNA, E. coli BL21(DE3); start MKKIVLT (from primer)

purified protein [1] = substrate: NC(=O)c1ccc[n+]([C@@H]2O[C@H](COP(=O)(O)OP(=O)(O)OC[C@H]3O[C@@H](n4cnc5c(N)ncnc54)[C@H](O)[C@@H]3O)[C@@H](O)[C@H]2O)c1; assay: purified protein; assay type: biochemical, Agrobacterium fabrum; conditions: 50 mM potassium phosphate pH 8.0, 37°C, uronic acid co-substrate, varied: cofactor
purified protein [2] = substrate: NC(=O)c1ccc[n+]([C@@H]2O[C@H](COP(=O)(O)OP(=O)(O)OC[C@H]3O[C@@H](n4cnc5c(N)ncnc54)[C@H](O)[C@@H]3O)[C@@H](O)[C@H]2O)c1; assay: purified protein; assay type: biochemical, Pseudomonas syringae group genomosp. 3; conditions: 50 mM potassium phosphate pH 8.0, 37°C, uronic acid co-substrate, varied: cofactor
[3] = 50 mM Tris-HCl pH 8.0, 37°C, co-substrate NAD+, read-out: Tris-Buffer / Kinetic parameters / Km
[4] = 50 mM potassium phosphate pH 8.0, 37°C, uronic acid co-substrate, read-out: KPi-Buffer / Kinetic parameters / Km

Q: What does the source list for `O=C(O)[C@H]1OC(O)[C@H](O)[C@@H](O)[C@@H]1O` (stereo partly shown) [Glucuronate]?
A: Km (UdhFp; [3]): 200 ± 30 µM; Km (UdhOg; [3]): 64000 ± 3000 µM

Q: What does the source list for `NC(=O)c1ccc[n+]([C@@H]2O[C@H](COP(=O)(O)OP(=O)(O)OC[C@H]3O[C@@H](n4cnc5c(N)ncnc54)[C@H](O)[C@@H]3O)[C@@H](O)[C@H]2O)c1` [NAD^+]?
A: Km (UdhFp; [4]): 200 ± 20 µM; Km (UdhOg; [4]): 400 ± 100 µM

Q: `O=C(O)[C@H]1OC(O)[C@@H](O)[C@@H](O)[C@@H]1O` (stereo partly shown) [Mannuronate] was tested. Which Km (UdhFp; [3]) did it give?
A: The Km was 6400 ± 130 µM.

Q: `O=C(O)[C@H]1OC(O)[C@H](O)[C@@H](O)[C@H]1O` (stereo partly shown) [Galacturonate] was tested. Which Km (UdhFp; [3]) did it give?
A: The Km was 20 µM.

Q: And the Km (UdhOg; [3])?
A: The Km was 55000 ± 3000 µM.

B1: UdhAt (Agrobacterium fabrum str. C58) (protein)
chain: MKRLLVTGAAGQLGRVMRERLAPMAEILRLADLSPLDPAGPNEECVQCDLADANAVNAMVAGCDGIVHLGGISVEKPFEQILQGNIIGLYNLYEAARAHGQPRIVFASSNHTIGYYPQTERLGPDVPARPDGLYGVSKCFGENLARMYFDKFGQETALVRIGSCTPEPNNYRMLSTWFSHDDFVSLIEAVFRAPVLGCPVVWGASANDAGWWDNSHLGFLGWKPKDNAEAFRRHITETTPPPDPNDALVRFQGGTFVDNPIFKQS
notes: N-terminal His-tag, tag kept; synthetic codon-optimized gene, E. coli BL21(DE3)
Q: What does the source list for B1?
A: Km (purified protein [1]): 100 ± 0 µM; kcat (purified protein [1]): 144 ± 14 s⁻¹; kcat/Km (purified protein [1]): 1.08e+06 M⁻¹ s⁻¹

B2: UdhPs (Pseudomonas syringae pv. tomato str. DC3000) (protein)
chain: MASAHTTQTPFNRLLLTGAAGGLGKVLRETLRPYSHILRLSDIAEMAPAVGDHEEVQVCDLADKDAVHRLVEGVDAILHFGGVSVERPFEEILGANICGVFHIYEAARRHGVKRVIFASSNHVIGFYKQNETIDAHSPRRPDSYYGLSKSYGEDMASFYFDRYGIETVSIRIGSSFPEPQNRRMMSTWLSFDDLTRLLERALYTPDVGHTVVYGVSDNKTVWWDNRFASKLDYAPKDSSEVFRAKVDAQPMPADDDPAMVYQGGAFVASGPFGDK
notes: as for B1
Q: How did the Km (purified protein [2]) turn out when B2 was run?
A: The Km was 200 ± 30 µM.

Q: And the kcat (purified protein [2])?
A: The kcat was 215 ± 12 s⁻¹.

Q: And the kcat/Km (purified protein [2])?
A: The kcat/Km was 1.26e+06 M⁻¹ s⁻¹.
